Several values for one entry are separate records, joined by “and”; a condition that tells them apart may be missing. Equal entries are not always repeated.
What was measured:
[1] = test system: BoNT/A-mediated cleavage of SNAP-25 in hiPSC-derived neurons; type: cell-based, human; settings: for EC50: read-out: EC50, protection of BoNT/A-intoxicated neurons (SNAP-25 cleavage)
BoNT/A = settings: mouse
[2] = mouse, in vivo, sc, 1 mg/kg
BoNT/A LC = BoNT/A LC (Clostridium botulinum, UniProt P0DPI0); type: biochemical
BoNT/A LC, sequence (P0DPI0 2-448 limits assumed): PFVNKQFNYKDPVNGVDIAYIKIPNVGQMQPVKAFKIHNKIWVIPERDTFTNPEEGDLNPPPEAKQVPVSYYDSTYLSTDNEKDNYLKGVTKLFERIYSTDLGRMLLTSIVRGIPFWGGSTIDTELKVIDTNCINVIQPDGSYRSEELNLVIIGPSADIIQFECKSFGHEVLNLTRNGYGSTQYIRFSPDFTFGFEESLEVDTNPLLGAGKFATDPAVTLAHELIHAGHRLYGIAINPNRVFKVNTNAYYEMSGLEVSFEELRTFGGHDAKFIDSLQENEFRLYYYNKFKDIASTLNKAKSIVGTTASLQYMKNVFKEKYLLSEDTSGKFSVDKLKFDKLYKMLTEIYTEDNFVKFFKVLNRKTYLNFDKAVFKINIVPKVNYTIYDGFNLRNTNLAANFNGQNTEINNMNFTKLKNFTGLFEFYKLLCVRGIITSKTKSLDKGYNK

Compound | effect on SNAP-25 cleavage [1] | EC50 [1] [nM] | in vivo efficacy against BoNT/A (BoNT/A) | time to death (BoNT/A; in vivo) | survival of mice treated with complex only without toxin [2] | result in cell-based BoNT/A assay [1] | other results
CNC(=S)NN=CC=NNC(=S)NC.[Cu+2] [Cu(GTSM), copper (II) glyoxal-bis(4-methylthiosemicarbazone)] | able to mitigate SNAP-25 cleavage | ~1000 | efficacy against BoNT/A was established | significant increase | complete survival |  | delay between +complex and control curves of SNAP-25 cleavage versus time [1]: less than half hour delay; effect of additives NAC, ASC or BSO on complex inhibition of BoNT/A [1]: no observable effect; efficacy after BoNT/A challenge (BoNT/A; in vivo): statistically significant efficacy was not achieved; time to death post-toxin exposure (BoNT/A; in vivo, sc): marked increase
Oc1c(Cl)cc(Cl)c2cccnc12 [DCOQ, 5,7-dichloroquinolin-8-ol] |  |  |  |  |  | promising results | 
COCCN(CCOC)C(=S)[S-].COCCN(CCOC)C(=S)[S-].[Cu+2] [Cu(MEDTC)2, copper (II) bis(2-methoxyethyl)dithiocarbamate] | able to mitigate SNAP-25 cleavage | ~1000 | efficacy against BoNT/A was established | significant increase | complete survival |  | 
CuCl2 [Cu (II)] |  |  |  |  |  |  | Ki (BoNT/A LC): 1560 nM and ~1000 nM; enzyme activity (BoNT/A LC): < 1%; inhibition mechanism (BoNT/A LC): noncompetitive inhibition; inhibitory activity in metal salt screen (BoNT/A LC): significant inhibitory activity; reversibility of inhibitory effect on Vmax (BoNT/A LC): reversible
c1ccc(-c2ccccn2)nc1 [BIPY, 2,2′-bipyridine] |  |  |  |  |  | promising results | 
O=C1O[C@H]([C@@H](O)CO)C([O-])=C1O.[Na+] [ASC, Sodium ascorbate, reference compound] |  |  |  |  |  |  | effect on enzyme activity (BoNT/A LC): no effect
